Read-outs that look alike come from different tables or passages of the source.
Columns and labels:
[1] = tested on: Male DBA/1 Lac J mice immunized with chick type II collagen; assay: collagen-induced arthritis model in the mouse; assay type: in vivo; conditions: for negative erosion scores compared to vehicle treatment group: PIP joint
Experimental: Male DBA/1 Lac J mice, kept under virus antibody free conditions, were immunized subcutaneously at 8 to 10 weeks of age with 100 microgram of chick type II collagen, emulsified in Freund's complete adjuvant. […] Animals assigned to the treatment protocol (12/group) were dosed starting on the day of disease onset (˜Day 28) until sacrifice on Day 38.
Evaluated parameters included mortality, serum creatinine, histology, and outcome assessments, such as clinical scoring (visual), hind paw swelling, histological scoring, erosion scoring, and immunohistochemistry.
Erosion scoring was done in a blinded manner by examining sagittal sections of the proximal interphalangeal (PIP) joint of the middle digit for the presence or absence of erosions (defined as demarcated defects in cartilage or bone filled with inflammatory tissue). This approach allowed for comparisons of the same joint.

rats, dogs, and primates = assay: repeated-dose oral toxicity studies; assay type: in vivo
[2] = tested on: hearts transplanted from Wistar Furth rats to Lewis rats; assay: rat heart transplant model; assay type: in vivo
From the text: If graft dysfunction was noted during the 30-day post-transplantation period, the animal was sacrificed. If the animal survived longer than 30 days post-transplantation, the test and control articles were discontinued and the animal was allowed to continue until graft dysfunction or up to 100 days post-transplantation.

[3] = for Area under the curve / Cmax: male rabbits, i.v. 10 mg/kg/day, mean ± SD
Experimental: (§1) On Days 1 and 7, blood samples were collected prior to drug administration and at 0.5, 1, 2, 4, 8, 12, 18, and 24 hours post-dose to generate a pharmacokinetic profile. Other evaluated parameters included clinical observations, body weight, food consumption, hematology, clinical chemistry, gross pathology, and histopathological examination of selected tissues/organs.
Blood samples were analyzed via high performance liquid chromatography coupled with mass spectrometry (LCMS).

rabbits = assay: toxicokinetic/nephrotoxicity study in the rabbit model, 30 days
Experimental: as §1

[4] = tested on: New Zealand White rabbits immunized with ovalbumin; assay: antigen-induced arthritis model in the rabbit; assay type: in vivo
Experimental: New Zealand White rabbits, maintained under specific pathogen free conditions, were immunized with 10 mg of ovalbumin in saline emulsified with Freund's complete adjuvant that was given intramuscularly and subcutaneously into several sites in the nape of the neck. Fourteen days later, all animals started receiving 2 daily intra-articular injections of 5 mg ovalbumin and 65 ng of human recombinant transforming growth factor 2 in saline.
Animals assigned to the treatment protocol (8/group) were dosed starting on the day of disease onset (˜Day 28) until sacrifice on Day 42.
Evaluated parameters included mortality, body weight, serum creatinine, histology, and outcome assessments such as knee joint swelling, synovial fluid counts, gross postmortem analysis, and histology.

[5] = tested on: islets from a CBA/J mouse transplanted into diabetic Balb/c mouse recipients; assay: islet cell allotransplantation mouse model; conditions: especially apparent at 25 mg/kg/day
From the text: Blood glucose was monitored daily until the time of graft failure, as defined by a glucose level greater than 17 mmol/L on two consecutive days.

For C=C/C=C/C[C@@H](C)[C@@H](O)[C@H]1C(=O)N[C@@H](CC)C(=O)N(C)CC(=O)N(C)[C@@H](CC(C)C)C(=O)N[C@@H](C(C)C)C(=O)N(C)[C@@H](CC(C)C)C(=O)N[C@@H](C)C(=O)N[C@H](C)C(=O)N(C)[C@@H](CC(C)C)C(=O)N(C)[C@@H](CC(C)C)C(=O)N(C)[C@@H](C(C)C)C(=O)N1C [ISATX247], the “negative erosion scores compared to vehicle treatment group” value ([1]; 250 μg/mouse i.p. daily) was “higher negative erosion scores”, the “prevention of the development of joint erosions” value ([1]; 500 μg/mouse) was “significantly prevent the development of joint erosions” and the “negative erosion scores compared to vehicle treatment group” value ([1]; 500 μg/mouse i.p. daily) was “significantly higher”. The “only toxicological effect noted in all species” value (rats, dogs, and primates) was “diarrhea/loose feces”, the tolerability (rats, dogs, and primates) was “well-tolerated” and the “graft function after discontinuation of dosing” value ([2]; 100 days post-transplant (70 days post discontinuation of dosing), a number of animals) was “still had functioning grafts at 100 days post-transplant”. For the same compound, the “increase of survival time over Cyclosporine A” value ([2]; optimal dose of 1.75 mg/kg/day) was “approximately 3 fold”, the “pharmacokinetic parameters in female rabbits compared with male rabbits” value ([3]; female rabbits, 10 mg/kg/day, exception: maximum concentration on Day 7) was “not significantly different” and the “Area under the curve” value ([3]; Day 1) was 5659 ± 1309 ng·h/mL. The Cmax ([3]; Day 1) was 1915 ± 149 ng/mL, the “Area under the curve” value ([3]; Day 7) was 5697 ± 1373 ng·h/mL and the Cmax ([3]; Day 7) was 1959 ± 470 ng/mL. For the same compound, the “examination of organs, female rabbits” value (rabbits; 15 mg/kg, 3 female rabbits that completed the study) was “No changes”, the “examination of organs, male rabbits” value (rabbits; 15 mg/kg, male rabbits) was “decrease in spermatogenesis” and the “Percent Change in Serum Creatinine Levels Over Baseline” value (shortened to “Percent Change”) (rabbits; male rabbits, 10 mg/kg, Day 15) was “+1%”. For the same compound, the “Percent Change” value (rabbits; male rabbits, 10 mg/kg, Day 30) was “+10%”, the “Percent Change” value (rabbits; male rabbits, 15 mg/kg, Day 15) was −19% and the “Percent Change” value (rabbits; male rabbits, 15 mg/kg, Day 30) was −11%. The hematological parameters (rabbits; rabbits) was “No significant changes”, the synovial fluid counts ([4]; prevention protocol) was “significant reductions” and the “synovial histopathological scores compared to vehicle control” value ([4]; prevention protocol, after 28 days of therapy, s.c.) was “significant decrease”. For the same compound, the “potency compared to cyclosporine A in treatment and prevention of arthritis” value ([4]; rabbit, in vivo) was “equivalent or potentially more potent than cyclosporine A”, the macroscopic arthritis score ([4]; treatment protocol) was “significant reduction” and the “synovial histopathological scores of animals with established arthritis compared to vehicle controls” value ([4]; treatment protocol, 14 days of treatment) was “Significant amelioration”. For the same compound, the “toxicity compared to cyclosporine A as the dose level increased” value [5] was “less toxic than cyclosporine A”.

— patent US7141648B2, “Synthesis of cyclosporin analogs” (priority 2001, dated 2006)
